Measurements published in patent US11912660B2, “S6K1 protein kinase inhibitors as cancer therapeutics” (Xavier University of Louisiana, priority 2020, dated 2024).
Read-outs that look alike come from different tables or passages of the source.

How the values were obtained:
Assay in all cases: SelectScreen kinase panel screening
Assay type in all cases: biochemical
[1] = target: MST4 (Homo sapiens (Human), UniProt Q9P289)
Description: (§1) The complete list of the kinases given in Table 1 and their details can be found on the ThermoFisher website for Biochemical Kinase assays (thermofisher.com/us/en/home/industrial/pharma-biopharma/drug-discovery-development/target-and-lead-identification-and-validation/kinasebiology.html).

[2] = target: IKBKE (IKK epsilon) (Homo sapiens (Human), UniProt Q14164)
Description: as §1

[3] = target: PDGFRA (PDGFR alpha) (Homo sapiens (Human), UniProt P16234)
Description: as §1

[4] = target: PTK2 (FAK) (Homo sapiens (Human), UniProt Q05397)
Description: as §1

[5] = target: AXL (Homo sapiens (Human), UniProt P30530)
Description: as §1

[6] = target: FRAP1 (mTOR) (Homo sapiens (Human), UniProt P42345)
Description: as §1

[7] = target: PTK6 (Brk) (Homo sapiens (Human), UniProt Q13882)
Description: as §1

[8] = target: ABL1 (Homo sapiens (Human), UniProt P00519)
Description: as §1

[9] = target: EPHA2 (Homo sapiens (Human), UniProt P29317)
Description: as §1

[10] = target: FGR (Homo sapiens (Human), UniProt P09769)
Description: as §1

[11] = target: PAK4 (Homo sapiens (Human), UniProt O96013)
Description: as §1

[12] = target: BRAF (Homo sapiens (Human), UniProt P15056)
Description: as §1

[13] = target: NEK2 (Homo sapiens (Human), UniProt P51955)
Chain of NEK2 (P51955 whole entry): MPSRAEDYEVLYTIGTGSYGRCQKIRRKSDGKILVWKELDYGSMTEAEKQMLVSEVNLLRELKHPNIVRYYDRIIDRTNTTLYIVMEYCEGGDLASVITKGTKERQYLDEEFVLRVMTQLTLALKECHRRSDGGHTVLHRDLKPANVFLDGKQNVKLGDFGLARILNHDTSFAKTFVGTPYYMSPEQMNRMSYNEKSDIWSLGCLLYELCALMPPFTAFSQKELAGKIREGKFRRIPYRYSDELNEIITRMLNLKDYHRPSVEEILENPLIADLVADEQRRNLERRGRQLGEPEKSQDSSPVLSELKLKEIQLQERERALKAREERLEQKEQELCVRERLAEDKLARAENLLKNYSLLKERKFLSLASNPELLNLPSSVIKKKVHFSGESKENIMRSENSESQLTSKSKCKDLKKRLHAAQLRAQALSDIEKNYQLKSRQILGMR
Description: as §1

[14] = target: AKT1 (PKB alpha) (Homo sapiens (Human), UniProt P31749)
Description: as §1

[15] = target: PIK3CA/PIK3R1 (p110 alpha/p85 alpha) (Homo sapiens (Human), UniProt P42336); conditions: read-out: % Inhibition class
Description: as §1

[16] = target: SRC (Homo sapiens (Human), UniProt P12931)
Description: as §1

[17] = target: PTK2B (FAK2) (Homo sapiens (Human), UniProt Q14289)
Chain of PTK2B (FAK2) (Q14289 whole entry): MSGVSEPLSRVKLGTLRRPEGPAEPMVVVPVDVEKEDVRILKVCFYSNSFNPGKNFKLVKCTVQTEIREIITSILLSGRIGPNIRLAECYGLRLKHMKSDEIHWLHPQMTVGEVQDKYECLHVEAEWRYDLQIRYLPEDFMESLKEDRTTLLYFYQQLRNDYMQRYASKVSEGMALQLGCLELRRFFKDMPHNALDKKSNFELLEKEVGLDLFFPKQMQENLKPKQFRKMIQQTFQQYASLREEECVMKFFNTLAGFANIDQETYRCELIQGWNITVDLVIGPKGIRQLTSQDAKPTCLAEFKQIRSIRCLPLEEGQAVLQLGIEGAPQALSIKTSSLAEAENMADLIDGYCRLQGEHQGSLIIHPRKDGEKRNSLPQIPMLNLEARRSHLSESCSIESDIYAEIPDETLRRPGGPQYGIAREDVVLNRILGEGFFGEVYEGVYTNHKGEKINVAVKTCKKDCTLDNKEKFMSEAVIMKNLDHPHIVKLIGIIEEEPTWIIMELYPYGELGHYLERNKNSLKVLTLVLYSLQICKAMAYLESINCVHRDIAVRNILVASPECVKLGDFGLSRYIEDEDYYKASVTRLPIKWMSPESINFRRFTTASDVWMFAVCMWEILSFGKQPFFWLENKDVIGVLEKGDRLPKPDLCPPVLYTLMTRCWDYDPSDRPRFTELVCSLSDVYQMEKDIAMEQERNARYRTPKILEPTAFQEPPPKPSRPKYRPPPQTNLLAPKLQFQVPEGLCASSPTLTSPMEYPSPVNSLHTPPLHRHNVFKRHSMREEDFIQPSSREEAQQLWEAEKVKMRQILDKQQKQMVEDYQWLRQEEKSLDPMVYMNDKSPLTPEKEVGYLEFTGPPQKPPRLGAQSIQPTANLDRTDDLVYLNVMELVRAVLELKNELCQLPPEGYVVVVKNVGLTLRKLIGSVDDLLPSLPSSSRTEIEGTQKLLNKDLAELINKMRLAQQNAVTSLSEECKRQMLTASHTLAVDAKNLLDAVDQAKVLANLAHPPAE
Description: as §1

[18] = target: CHEK2 (CHK2) (Homo sapiens (Human), UniProt O96017)
Chain of CHEK2 (CHK2) (O96017 whole entry): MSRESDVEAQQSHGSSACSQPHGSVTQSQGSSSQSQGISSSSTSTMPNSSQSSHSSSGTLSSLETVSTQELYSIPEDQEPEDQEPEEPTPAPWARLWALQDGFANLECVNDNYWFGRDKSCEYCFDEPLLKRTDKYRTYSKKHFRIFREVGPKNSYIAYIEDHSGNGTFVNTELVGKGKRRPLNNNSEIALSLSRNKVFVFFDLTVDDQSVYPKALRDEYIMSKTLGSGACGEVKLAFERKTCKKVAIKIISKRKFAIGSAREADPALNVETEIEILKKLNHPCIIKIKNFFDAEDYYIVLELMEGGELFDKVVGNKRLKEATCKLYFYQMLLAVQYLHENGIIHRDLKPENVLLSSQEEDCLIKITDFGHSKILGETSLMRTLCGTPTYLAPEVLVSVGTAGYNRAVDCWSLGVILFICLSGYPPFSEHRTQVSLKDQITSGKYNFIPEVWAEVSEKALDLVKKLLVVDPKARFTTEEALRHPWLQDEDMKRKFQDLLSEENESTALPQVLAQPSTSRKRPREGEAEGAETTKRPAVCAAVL
Description: as §1

[19] = target: FGFR4 (Homo sapiens (Human), UniProt P22455)
Description: as §1

[20] = target: FLT3 (Homo sapiens (Human), UniProt P36888)
Chain of FLT3 (P36888 27-993): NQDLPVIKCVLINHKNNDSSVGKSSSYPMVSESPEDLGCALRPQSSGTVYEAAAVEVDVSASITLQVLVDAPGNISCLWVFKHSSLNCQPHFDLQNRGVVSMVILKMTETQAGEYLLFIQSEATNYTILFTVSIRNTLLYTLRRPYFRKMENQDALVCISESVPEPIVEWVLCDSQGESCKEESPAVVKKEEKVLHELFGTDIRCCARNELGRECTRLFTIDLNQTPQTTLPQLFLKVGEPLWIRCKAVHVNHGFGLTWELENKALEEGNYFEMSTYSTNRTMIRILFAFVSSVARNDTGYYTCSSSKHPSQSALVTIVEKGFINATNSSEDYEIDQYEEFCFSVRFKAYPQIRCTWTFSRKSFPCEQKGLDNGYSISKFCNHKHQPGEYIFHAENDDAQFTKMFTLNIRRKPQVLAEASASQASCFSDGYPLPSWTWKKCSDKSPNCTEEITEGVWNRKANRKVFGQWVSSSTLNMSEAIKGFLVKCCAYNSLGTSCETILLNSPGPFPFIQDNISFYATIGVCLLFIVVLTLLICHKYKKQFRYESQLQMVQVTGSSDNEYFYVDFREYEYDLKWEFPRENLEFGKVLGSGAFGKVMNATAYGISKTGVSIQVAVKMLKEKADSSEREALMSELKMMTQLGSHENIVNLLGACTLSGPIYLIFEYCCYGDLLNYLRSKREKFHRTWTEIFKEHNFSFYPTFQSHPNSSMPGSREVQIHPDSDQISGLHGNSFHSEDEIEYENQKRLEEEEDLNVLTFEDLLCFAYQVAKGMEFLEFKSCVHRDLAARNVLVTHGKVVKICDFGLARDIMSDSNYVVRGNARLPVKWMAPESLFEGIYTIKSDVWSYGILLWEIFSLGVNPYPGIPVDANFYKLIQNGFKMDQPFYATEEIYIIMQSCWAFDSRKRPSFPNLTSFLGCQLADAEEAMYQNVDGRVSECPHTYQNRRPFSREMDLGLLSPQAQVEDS
Description: as §1

[21] = target: AKT2 (PKB beta) (Homo sapiens (Human), UniProt P31751)
Chain of AKT2 (PKB beta) (P31751 whole entry): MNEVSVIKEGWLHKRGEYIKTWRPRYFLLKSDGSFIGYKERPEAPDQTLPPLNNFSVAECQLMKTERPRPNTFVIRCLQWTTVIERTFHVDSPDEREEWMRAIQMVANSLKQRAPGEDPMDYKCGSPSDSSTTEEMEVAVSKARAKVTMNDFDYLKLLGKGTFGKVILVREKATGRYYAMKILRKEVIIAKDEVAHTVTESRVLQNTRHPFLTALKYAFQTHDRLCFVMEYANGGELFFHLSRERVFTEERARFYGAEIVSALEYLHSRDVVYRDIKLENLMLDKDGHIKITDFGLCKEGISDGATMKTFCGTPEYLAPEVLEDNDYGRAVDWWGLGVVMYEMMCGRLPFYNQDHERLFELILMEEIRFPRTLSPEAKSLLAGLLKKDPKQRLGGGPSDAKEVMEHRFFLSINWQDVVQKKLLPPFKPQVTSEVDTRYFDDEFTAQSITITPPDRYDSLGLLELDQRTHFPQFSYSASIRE
Description: as §1

[22] = target: SYK (Homo sapiens (Human), UniProt P43405)
Description: as §1

[23] = target: CSF1R (FMS) (Homo sapiens (Human), UniProt P07333)
Chain of CSF1R (FMS) (P07333 20-972): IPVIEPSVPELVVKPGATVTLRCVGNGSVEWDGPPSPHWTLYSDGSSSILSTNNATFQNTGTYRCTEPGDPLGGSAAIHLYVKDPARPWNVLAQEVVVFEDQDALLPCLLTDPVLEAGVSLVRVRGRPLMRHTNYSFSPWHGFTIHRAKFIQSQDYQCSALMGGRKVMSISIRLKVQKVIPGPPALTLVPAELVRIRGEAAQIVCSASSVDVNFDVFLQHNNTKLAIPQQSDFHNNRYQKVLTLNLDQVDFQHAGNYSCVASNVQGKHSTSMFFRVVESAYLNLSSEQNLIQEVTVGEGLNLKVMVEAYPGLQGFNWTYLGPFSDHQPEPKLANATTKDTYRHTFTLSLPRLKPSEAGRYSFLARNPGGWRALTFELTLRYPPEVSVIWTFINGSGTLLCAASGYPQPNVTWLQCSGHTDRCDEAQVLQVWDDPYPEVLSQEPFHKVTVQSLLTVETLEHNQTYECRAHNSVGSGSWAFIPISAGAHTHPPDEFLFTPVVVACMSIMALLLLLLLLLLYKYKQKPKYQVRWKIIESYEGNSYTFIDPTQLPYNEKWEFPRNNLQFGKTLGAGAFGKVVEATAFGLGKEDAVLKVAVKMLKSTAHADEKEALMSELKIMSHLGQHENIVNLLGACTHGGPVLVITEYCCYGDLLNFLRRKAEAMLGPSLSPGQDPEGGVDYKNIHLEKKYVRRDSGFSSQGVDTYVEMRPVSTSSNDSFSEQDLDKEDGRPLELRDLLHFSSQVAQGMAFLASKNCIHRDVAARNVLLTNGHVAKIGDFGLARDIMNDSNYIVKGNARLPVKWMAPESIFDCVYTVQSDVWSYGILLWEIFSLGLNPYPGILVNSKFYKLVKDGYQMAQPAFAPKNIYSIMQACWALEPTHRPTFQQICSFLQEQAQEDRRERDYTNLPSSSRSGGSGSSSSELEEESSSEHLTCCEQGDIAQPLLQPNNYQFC
Description: as §1

[24] = target: IGF1R (Homo sapiens (Human), UniProt P08069)
Description: as §1

[25] = target: MAPK14 (p38 alpha) Direct (Homo sapiens (Human), UniProt Q16539)
Description: as §1

[26] = target: AURKA (Aurora A) (Homo sapiens (Human), UniProt O14965)
Description: as §1

[27] = target: MST1R (RON) (Homo sapiens (Human), UniProt Q04912)
Description: as §1

[28] = target: PLK3 (Homo sapiens (Human), UniProt Q9H4B4)
Description: as §1

[29] = target: FER (Homo sapiens (Human), UniProt P16591)
Description: as §1

[30] = target: CSNK1E (CK1 epsilon) (Homo sapiens (Human), UniProt P49674)
Description: as §1

[31] = target: MAP4K4 (HGK) (Homo sapiens (Human), UniProt O95819)
Description: as §1

[32] = target: FLT4 (VEGFR3) (Homo sapiens (Human), UniProt P35916)
Description: as §1

Chain of MST4 (Q9P289 whole entry): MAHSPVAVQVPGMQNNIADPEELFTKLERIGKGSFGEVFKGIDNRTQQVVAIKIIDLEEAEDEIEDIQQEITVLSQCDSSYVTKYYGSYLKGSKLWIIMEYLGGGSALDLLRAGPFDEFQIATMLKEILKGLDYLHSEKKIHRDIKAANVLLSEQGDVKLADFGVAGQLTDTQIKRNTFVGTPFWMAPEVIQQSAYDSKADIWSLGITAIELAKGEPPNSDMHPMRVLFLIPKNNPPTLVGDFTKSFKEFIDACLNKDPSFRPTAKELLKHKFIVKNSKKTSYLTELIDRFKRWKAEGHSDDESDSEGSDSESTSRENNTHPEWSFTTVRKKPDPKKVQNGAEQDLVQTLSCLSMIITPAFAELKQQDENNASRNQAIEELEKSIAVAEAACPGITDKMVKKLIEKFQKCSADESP

Nc1cc(N)c2c(c1)C(=O)NC2=O [RJ1, 4,6-diaminoisoindoline-1,3-dione]
inhibition at 10 µM ([1]; read-out: % Inhibition): 52%
inhibition at 10 µM ([1]; read-out: % Inhibition class): 40 to 80%
inhibition at 10 µM ([2]; read-out: % Inhibition): 16%
inhibition at 10 µM ([2]; read-out: % Inhibition class): < 40%
inhibition at 10 µM ([3]; read-out: % Inhibition): 13%
inhibition at 10 µM ([3]; read-out: % Inhibition class): < 40%
inhibition at 10 µM ([4]; read-out: % Inhibition): 26%
inhibition at 10 µM ([4]; read-out: % Inhibition class): < 40%
inhibition at 10 µM ([5]; read-out: % Inhibition): 10%
inhibition at 10 µM ([5]; read-out: % Inhibition class): < 40%
inhibition at 10 µM ([6]; read-out: % Inhibition): 6%
inhibition at 10 µM ([6]; read-out: % Inhibition class): < 40%
inhibition at 10 µM ([7]; read-out: % Inhibition): 4%
inhibition at 10 µM ([7]; read-out: % Inhibition class): < 40%
inhibition at 10 µM ([8]; read-out: % Inhibition): 59%
inhibition at 10 µM ([8]; read-out: % Inhibition class): 40 to 80%
inhibition at 10 µM ([9]; read-out: % Inhibition): 16%
inhibition at 10 µM ([9]; read-out: % Inhibition class): < 40%
inhibition at 10 µM ([10]; read-out: % Inhibition): 51%
inhibition at 10 µM ([10]; read-out: % Inhibition class): 40 to 80%
inhibition at 10 µM ([11]; read-out: % Inhibition): 29%
inhibition at 10 µM ([11]; read-out: % Inhibition class): < 40%
inhibition at 10 µM ([12]; read-out: % Inhibition): 19%
inhibition at 10 µM ([12]; read-out: % Inhibition class): < 40%
inhibition at 10 µM ([13]; read-out: % Inhibition): -20%
inhibition at 10 µM ([13]; read-out: % Inhibition class): < 40%
inhibition at 10 µM ([14]; read-out: % Inhibition): 11%
inhibition at 10 µM ([14]; read-out: % Inhibition class): < 40%
inhibition at 10 µM [15]: < 40%
inhibition at 10 µM ([16]; read-out: % Inhibition): 9%
inhibition at 10 µM ([16]; read-out: % Inhibition class): < 40%
inhibition at 10 µM ([17]; read-out: % Inhibition): 18%
inhibition at 10 µM ([17]; read-out: % Inhibition class): < 40%
inhibition at 10 µM ([18]; read-out: % Inhibition): 38%
inhibition at 10 µM ([18]; read-out: % Inhibition class): < 40%
inhibition at 10 µM ([19]; read-out: % Inhibition): 20%
inhibition at 10 µM ([19]; read-out: % Inhibition class): < 40%
inhibition at 10 µM ([20]; read-out: % Inhibition): 29%
inhibition at 10 µM ([20]; read-out: % Inhibition class): < 40%
inhibition at 10 µM ([21]; read-out: % Inhibition): 9%
inhibition at 10 µM ([21]; read-out: % Inhibition class): < 40%
inhibition at 10 µM ([22]; read-out: % Inhibition): 39%
inhibition at 10 µM ([22]; read-out: % Inhibition class): < 40%
inhibition at 10 µM ([23]; read-out: % Inhibition): 26%
inhibition at 10 µM ([23]; read-out: % Inhibition class): < 40%
inhibition at 10 µM ([24]; read-out: % Inhibition): 10%
inhibition at 10 µM ([24]; read-out: % Inhibition class): < 40%
inhibition at 10 µM ([25]; read-out: % Inhibition): 2%
inhibition at 10 µM ([25]; read-out: % Inhibition class): < 40%
inhibition at 10 µM ([26]; read-out: % Inhibition): 43%
inhibition at 10 µM ([26]; read-out: % Inhibition class): 40 to 80%
inhibition at 10 µM ([27]; read-out: % Inhibition): 27%
inhibition at 10 µM ([27]; read-out: % Inhibition class): < 40%
inhibition at 10 µM ([28]; read-out: % Inhibition): 77%
inhibition at 10 µM ([28]; read-out: % Inhibition class): 40 to 80%
inhibition at 10 µM ([29]; read-out: % Inhibition): 23%
inhibition at 10 µM ([29]; read-out: % Inhibition class): < 40%
inhibition at 10 µM ([30]; read-out: % Inhibition): 33%
inhibition at 10 µM ([30]; read-out: % Inhibition class): < 40%
inhibition at 10 µM ([31]; read-out: % Inhibition): 66%
inhibition at 10 µM ([31]; read-out: % Inhibition class): 40 to 80%
inhibition at 10 µM ([32]; read-out: % Inhibition): 55%
inhibition at 10 µM ([32]; read-out: % Inhibition class): 40 to 80%
